Experimental findings from patent publication US20100197688A1, “EPHA4 RTK INHIBITORS FOR TREATMENT OF NEUROLOGICAL AND NEURODEGENERATIVE DISORDERS AND CANCER” (priority 2008, published 2010) are described below.

For test [1], the system named is Jak2/Stat3 activation with Interferon Gamma in MCF-7 cells. Nature of the test: Cell-based counterscreen assay (IFN-γ activated Jak2/Stat3, pGAS-luciferase). The following applies: for IC50: Homo sapiens, MCF7, inflexion point, read-out: Cell Counter Screen Assay IP. The source says: EphA4 cell-based assay was based on the signaling pathway of EphA4, which involves activation of the tyrosine kinase Jak2 and the transcriptional activator Stat3. However, pharmacological agents could also interfere downstream of EphA4 signaling and particularly on Jak2 activity. To counterscreen this potential effect unrelated to EphA4 activity, a new assay was designed based on direct activation of the tyrosine kinase Jak2 and the transcriptional activator Stat3 with Interferon Gamma (IFN-γ).
MCF-7 cells were maintained in MEM growth media, supplemented with 10% fetal bovine serum, 2 mM L-glutamine, 1.5 g/L sodium bicarbonate, 0.1 mM non-essential amino acids, 1 mM sodium pyruvate, and 0.01 mg/ml bovine insulin. For the luciferase assay MCF-7 cells were co-transfected the next day with […] of pGAS-Luc and […] of empty vector pRL-CMV, which encoded the Renilla luciferase, and was included in the transfection mix for normalization. Six hours after transfection the cells were trypsinized and plated at 4.105 cells/ml into 96 well Black/Clear Poly-D-Lysine coated plates (Biocoat) that had been pre-spotted with compounds. […] Cells were lysed the next day using the Reporter Lysis Buffer (Promega), and the luciferase activity was measured using the Dual Luciferase Assay (Promega) following the manufacturer's directions. The Firefly and Renilla luminescences are read consecutively on a Top-Count (Perkin-Elmer).
Results are expressed as a ratio of the two luminsescence: Firefly Luciferase/Renilla Luciferase. Cell viability was assessed on parallel plates using the Cell Glo Assay (Promega) following the manufacturer's directions. Results are expressed as percent of cell death in comparison with vehicle-treated wells.
Compounds were titrated in duplicate at 10 points concentration starting at 100 μM with a 1.5 fold increment. Concentration-response curves were represented and the concentrations at the inflexion point (IP) were calculated. The maximum effect was given by the maximum percent inhibition calculated from the results of the control wells (containing only DMSO).
On the technique in general: Counterscreens check selectivity or assay interference.

The subject of test [2] is C2C12 mouse myoblast cell line. Nature of the test: Scratch wound assay, C2C12 cells. The following applies: for IC50: Mus musculus, C2C12, inflexion point, from AUC of % wound confluence, read-out: Scratch Assay C2C12 Cells IP; for Scratch Assay C2C12 Cells max inhibition in %: value in parentheses. Format: cell-based. As to the method:
Cell Cultures: C2C12 mouse myoblast cell line (ATCC, VA, USA) was maintained in culture in DMEM media supplemented with 10% fetal bovine serum, 1 mM sodium pyruvate, 1.5 g/L sodium bicarbonate, and 100 IU of penicillin, […] of streptomycin. The cells were then differentiated into myotubes with DMEM supplemented with 2% horse serum for 3 days in 24 well ImageLock™ plate (Essen Instruments, Mich., USA).
Scratch wound assays are commonly used to assess the effects of drugs and drug candidates on the cellular proliferation and/or migration associated with wound closing. The IncuCyte™ system (Essen Instruments, Mich., USA), an automated imaging platform, provides ongoing, real-time images and quantitative data generated throughout the wound-closing process. Cells were maintained in 24 well ImageLock™ (Essen Instruments, Mich., USA) at 37° C. and […], until a confluent monolayer was achieved. A single scratch wound was then created in each well using the Essen Woundmaker™ (Essen Instruments, Mich., USA). It induced a mechanical scratch of the cell monolayer using plastic pipette tips (10-20 μl pipette tips, Eppendorff). Dead cells and other debris produced by the scratch were immediately washed with regular growth media. Cells were then treated with pharmacological agents and were placed into the IncuCyte™ at 37° C. and […], for two to three days. During this time, the wound area within each well was repeatedly imaged at fixed time intervals (every three hours). The IncuCyte™ scratch wound software generates a “wound mask” for each well. An initial wound mask is created for the first image (at time 0) that clearly delineates the border of the wound. A revised mask is generated for each subsequent image to track wound closure. Wound closure can be automatically monitored using the wound confluence (% confluence). Wound confluence can be graphed over time to evaluate the characteristics of wound closing in the presence of pharmacological agents.
The calculation of the area under the curve (AUC) of the % confluence function of the time gave a quantitative measurement of compounds efficacy on the scratch wound closing. Compounds were titrated in quadruplicate at 5 points concentration starting at […] with a two-fold increment. The percentage of inhibition was calculated from the AUCs at each dose in comparison with the AUCs of the control wells (1% DMSO). Concentration-response curves were represented and the concentrations at the inflexion point (IP) were calculated. The maximum effect was given by the maximum percent inhibition.

The target in test [3] is T1, Jak2 (Homo sapiens, UniProt O60674).
T1 construct: purchased Cell Signaling, USA
Briefly: Jak2 kinase counterscreen enzymatic assay (TR-FRET). It is filed as biochemical. The following applies: 5 μM ATP. As to the method:
Counterscreen assays were developed for the tyrosine kinases src kinase and jak2 kinase, with a format essentially identical to the EphA4 kinase TR-FRET format. Jak2 (50 ng) (Cell Signaling, USA) was incubated with 0.5 μM of biotinylated FLT3 peptide (Cell Signaling, USA) in presence of 5 μM of ATP (Sigma). P60c-src (10 U/well) (Upstate biotechnology, USA) was incubated with biotinylated Poly(Glu Tyr) peptide (100 nM) in presence of 0.5 μM of ATP. The enzymatic reaction was stopped after 60 min by adding 15 mM EDTA. The detection reaction and energy transfer signal measurements were similar to those previously described. Results were expressed as ratios of the absorbencies 665/615.
Compounds were titrated in duplicate at 11 points concentration starting at 100 μM with a 3 fold increment. Compounds were diluted in DMSO. […] Percentage inhibition for each compound was then calculated based on the value of the 100% inhibition. Concentration-response curves were represented and the concentrations for 50% inhibition (IC50) were calculated.

T1 sequence (O60674 whole entry, species assumed): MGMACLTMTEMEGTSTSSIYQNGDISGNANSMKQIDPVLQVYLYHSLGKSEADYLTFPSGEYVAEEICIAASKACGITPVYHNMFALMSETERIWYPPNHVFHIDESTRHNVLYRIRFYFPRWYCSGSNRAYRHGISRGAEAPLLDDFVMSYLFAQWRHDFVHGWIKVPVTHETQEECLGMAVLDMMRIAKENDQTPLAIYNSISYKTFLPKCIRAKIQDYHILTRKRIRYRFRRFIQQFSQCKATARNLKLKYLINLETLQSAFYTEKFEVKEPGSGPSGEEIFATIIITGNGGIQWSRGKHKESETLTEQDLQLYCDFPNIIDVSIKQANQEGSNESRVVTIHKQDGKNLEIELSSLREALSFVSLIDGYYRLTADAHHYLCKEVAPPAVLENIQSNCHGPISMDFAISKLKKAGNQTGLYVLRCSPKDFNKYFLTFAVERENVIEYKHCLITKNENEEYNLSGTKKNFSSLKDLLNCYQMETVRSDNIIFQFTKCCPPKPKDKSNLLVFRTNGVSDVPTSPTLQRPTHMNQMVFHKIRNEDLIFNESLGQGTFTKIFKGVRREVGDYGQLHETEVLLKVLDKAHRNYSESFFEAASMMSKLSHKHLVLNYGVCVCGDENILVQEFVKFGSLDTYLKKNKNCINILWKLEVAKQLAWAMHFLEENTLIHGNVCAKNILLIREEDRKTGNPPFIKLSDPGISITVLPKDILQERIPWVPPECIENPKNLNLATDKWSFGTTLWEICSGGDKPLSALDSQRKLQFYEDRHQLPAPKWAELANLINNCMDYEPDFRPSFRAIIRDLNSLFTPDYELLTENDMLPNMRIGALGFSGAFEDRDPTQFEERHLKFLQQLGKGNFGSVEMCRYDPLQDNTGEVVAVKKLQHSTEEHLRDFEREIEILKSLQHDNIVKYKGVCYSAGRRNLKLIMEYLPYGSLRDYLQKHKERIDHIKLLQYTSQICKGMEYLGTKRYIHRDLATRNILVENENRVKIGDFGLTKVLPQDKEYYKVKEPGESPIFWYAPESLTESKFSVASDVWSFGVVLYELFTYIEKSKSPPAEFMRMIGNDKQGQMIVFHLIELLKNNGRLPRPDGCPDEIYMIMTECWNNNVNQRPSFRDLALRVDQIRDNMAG

In the case of `Cc1ccc(NC(=O)c2cccc(C(F)(F)F)c2)cc1-c1ccc(-n2cccn2)cc1` [Example 120], the IC50 is greater than 100 µM in test [1], 3.1 µM in test [2] and greater than 100 µM in test [3]. Also, in test [2], the “Scratch Assay C2C12 Cells max inhibition in %” value is 43%.
Turning to `Cc1ccc(NC(=O)c2cccc(C(F)(F)F)c2)cc1-c1ccc(O)c(NC=O)c1` [Example 133], the IC50 in test [1] is 1.7 µM; in test [2], 6 µM; in test [3] it was greater than 100 µM. Besides, in test [1] (value in parentheses), the “Cell Counter Screen Assay max inhibition in %” value was determined as 99%. The “Scratch Assay C2C12 Cells max inhibition in %” value in test [2] was found to be 42%.
